Source: ChEMBL document CHEMBL5604063, “ASAP - DENV-2 NS2B-NS3 protease fluorescence dose response” (2024)
“And” between values parts separate entries of the source, which are not always exact repeats. Equal values may be shown once.

Columns and labels:
[1] = molecular target: T1, Genome polyprotein (dengue virus type 2, UniProt P29990); format: functional, Thailand/16681/1984
[2] = molecular target: T1, Genome polyprotein; format: functional, Thailand/16681/1984; remark: listed apart in the source

T1 sequence (P29990 1346-1475 limits assumed): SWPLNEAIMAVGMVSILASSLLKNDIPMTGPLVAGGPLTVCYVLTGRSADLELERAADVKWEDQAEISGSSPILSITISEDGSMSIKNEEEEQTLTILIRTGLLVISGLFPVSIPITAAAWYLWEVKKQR
T1 sequence (P29990 1476-2093 limits assumed): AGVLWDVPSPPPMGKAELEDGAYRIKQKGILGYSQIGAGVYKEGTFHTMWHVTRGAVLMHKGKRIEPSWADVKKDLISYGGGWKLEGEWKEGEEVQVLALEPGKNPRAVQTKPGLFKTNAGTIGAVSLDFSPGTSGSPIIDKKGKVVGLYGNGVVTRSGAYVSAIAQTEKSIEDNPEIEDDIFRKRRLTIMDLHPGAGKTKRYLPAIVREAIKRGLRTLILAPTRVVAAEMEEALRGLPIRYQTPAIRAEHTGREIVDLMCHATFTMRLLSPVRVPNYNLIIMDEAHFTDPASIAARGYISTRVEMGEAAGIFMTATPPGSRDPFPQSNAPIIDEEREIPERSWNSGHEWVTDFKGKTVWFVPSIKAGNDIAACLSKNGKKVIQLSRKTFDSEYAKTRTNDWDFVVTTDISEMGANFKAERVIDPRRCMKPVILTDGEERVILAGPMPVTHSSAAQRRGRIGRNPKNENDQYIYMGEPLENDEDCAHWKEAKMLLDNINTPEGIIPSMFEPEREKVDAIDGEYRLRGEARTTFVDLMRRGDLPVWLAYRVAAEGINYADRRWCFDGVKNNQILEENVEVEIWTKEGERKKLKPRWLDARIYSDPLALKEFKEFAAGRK

Structure (SMILES)	IC50 [1]	IC50 [2]
O=C(Nc1cc(Cl)cc(C(=O)Nc2ccc3c(c2)C[C@H](O)C3)c1)OCc1ccccc1	> 100 µM	> 99.5 µM
Cc1cc(C(=O)Nc2cccc(CN)c2)c2cnn(-c3ccc(F)cc3)c2n1	> 100 µM	> 99.5 µM
COCc1cc(NC(=O)OCc2ccccc2)cc(C(=O)Nc2cccc(CN)c2)c1	> 100 µM	> 99.5 µM
CC(C)c1cc(NC(=O)OCc2ccccc2)cc(C(=O)Nc2cccc(CN)c2)c1	> 100 µM	66.9 µM
CNC(=O)C[C@H](Nc1ccccn1)c1cc(Cl)cc(Br)c1	> 100 µM	> 99.5 µM
CN(C)Cc1cc(Cl)cc(C(=O)Nc2cccc(CN)c2)c1	> 100 µM	> 99.5 µM
CCn1c(=O)c(N2CC[C@H](CO)C2)nc2ccc(C(=O)N(C)C)cc21	> 100 µM	> 99.5 µM
NCc1ccc(I)c(NC(=O)c2cc(Cl)cc(NC(=O)OCc3ccccc3)c2)c1	> 100 µM	52.1 µM
CCn1c(=O)c(N2CC[C@H](CO)C2)nc2cc(C(N)=O)ccc21	> 100 µM	> 99.5 µM
O=C(Nc1cc(Cl)cc(C(=O)Nc2ccc(S(=O)(=O)N3CCNCC3)cc2)c1)OCc1ccccc1	> 100 µM	> 99.5 µM
O=C(Nc1cc(Cl)cc(C(=O)Nc2ccc3c(c2)OCO3)c1)OCc1ccccc1	> 100 µM	> 99.5 µM
NCc1cccc(NC(=O)c2cc(Cl)cc([C@H]3CCCCN3)c2)c1	> 100 µM	> 99.5 µM
O=C(Nc1cc(Cl)cc(C(=O)Nc2cccc([C@H]3C[C@H]3C(=O)O)c2)c1)OCc1ccccc1	12.3 µM (3×) and 10.2 µM and 15.6 µM and 14.8 µM	19.6 µM and 25.7 µM and 26.9 µM and 24.8 µM
NCc1cccc(NC(=O)c2cc(NC(=O)OCc3ccccc3)cc(C3CC3)c2)c1	> 100 µM	76.1 µM
C[C@H]1CN(C)C[C@@H](C(=O)Nc2cccc(CN)c2)O1	> 100 µM	> 99.5 µM
Cc1cc(NC(=O)OCc2ccccc2)cc(C(=O)Nc2cccc(CN)c2)c1	> 100 µM	> 99.5 µM
CS(=O)(=O)c1cc(CN)cc(NC(=O)c2cc(Cl)cc(NC(=O)OCc3ccccc3)c2)c1	> 100 µM	> 99.5 µM
O=C(O)COc1cccc(NC(=O)c2cc(Cl)cc(NC(=O)OCc3ccccc3)c2)c1	28 µM and 22.5 µM	45.5 µM
CNC(=O)[C@H](Nc1cccc(N)n1)c1cc(Cl)cc(CN)c1	> 100 µM	> 99.5 µM
Cc1c(C(=O)Nc2cccc(CN)c2)cc(C(C)C)n1C	> 100 µM	> 99.5 µM
O=C1NC[C@H](c2ccc(OCc3ccccc3)c(Br)c2)N1C(=O)OCc1ccccc1	> 100 µM	> 99.5 µM

Structure (SMILES)	IC50 [1]	IC50 [2]
O=Cc1cc(Cl)cc(NC(=O)OCc2ccccc2)c1	> 100 µM	> 99.5 µM
CCn1c(=O)c(N2CC[C@H](CO)C2)nc2cc(C(=O)O)ccc21	> 100 µM	> 99.5 µM
NCCNS(=O)(=O)c1ccc(NC(=O)c2cc(Cl)cc(NC(=O)OCc3ccccc3)c2)cc1	> 100 µM	33.6 µM
NCc1cc(Br)cc(NC(=O)c2cc(Cl)cc(NC(=O)OCc3ccccc3)c2)c1	> 100 µM	> 99.5 µM
CC1(C)CCC(F)(F)C[C@H]1C(=O)Nc1cccc(CN)c1	> 100 µM	> 99.5 µM
O=C(Nc1cc(Cl)cc(C(=O)Nc2ccc(C3CCNCC3)cc2)c1)OCc1ccccc1	41.3 µM	15.7 µM and 21.1 µM
O=C(Nc1cc(Cl)cc(C(=O)Nc2cccc(CN3CCCC3=O)c2)c1)OCc1ccccc1	> 100 µM	> 99.5 µM
NCc1ccc(C#CCO)c(NC(=O)c2cc(Cl)cc(NC(=O)OCc3ccccc3)c2)c1	> 100 µM	38 µM
O=C(Nc1cc(Cl)cc(C(=O)Nc2ccc3c(c2)OCCNC3)c1)OCc1ccccc1	> 100 µM	> 99.5 µM
NCc1cccc(NC(=O)c2c(C(F)(F)F)nc3n2CCCC3)c1	> 100 µM	> 99.5 µM
Cc1cnnc(C(=O)Nc2cccc(CN)c2)c1	> 100 µM	> 99.5 µM
N#CC[C@H](N)c1cccc(NC(=O)c2cc(Cl)cc(NC(=O)OCc3ccccc3)c2)c1	> 100 µM	> 99.5 µM
CCn1c(=O)c(N2CC[C@H](CO)C2)nc2ccc(C(=O)NCc3ccccc3)cc21	> 100 µM	95.1 µM
O=C(Nc1cc(Cl)cc(C(=O)Nc2ccc(OC3CNC3)cc2)c1)OCc1ccccc1	> 100 µM	64.2 µM
Cc1nc(N2CCOCC2)sc1CC(=O)Nc1cccc(CN)c1	> 100 µM	> 99.5 µM
NCCCCc1ccc(NC(=O)c2cc(Cl)cc(NC(=O)OCc3ccccc3)c2)cc1	33.2 µM	11.8 µM and 19.5 µM
NCc1cccc(NC(=O)c2cc(NC(=O)OCc3ccccc3)cc(C(F)(F)F)c2)c1	> 100 µM	> 99.5 µM
CS(=O)(=O)c1ccc(CN)cc1NC(=O)c1cc(Cl)cc(NC(=O)OCc2ccccc2)c1	> 100 µM	> 99.5 µM
O=C(O)CCc1ccc(NC(=O)c2cc(Cl)cc(NC(=O)OCc3ccccc3)c2)cc1	17.7 µM	42.8 µM
N#CCc1cccc(NC(=O)c2cc(Cl)cc(NC(=O)OCc3ccccc3)c2)c1	> 100 µM	> 99.5 µM
CCn1c(=O)c(N2CC[C@H](CO)C2)nc2cc(C(=O)N(C)C)ccc21	> 100 µM	> 99.5 µM

Structure (SMILES)	IC50 [1]	IC50 [2]
CC(C)(C)OC(=O)NCc1ccc(I)c(NC(=O)c2cc(Cl)cc(NC(=O)OCc3ccccc3)c2)c1	> 100 µM	> 99.5 µM
CNC(=O)[C@H](Nc1ccccn1)c1cc(Cl)cc(CN)c1	> 100 µM	> 99.5 µM
O=C(Nc1cc(Cl)cc(C(=O)Nc2ccc(CCN3CCOCC3)cc2)c1)OCc1ccccc1	> 100 µM	> 99.5 µM
NCc1nc(-c2ccc(NC(=O)c3cc(Cl)cc(NC(=O)OCc4ccccc4)c3)cc2)n[nH]1	> 100 µM	48.2 µM
NCc1cccc(NC(=O)[C@H]2CC(=O)Nc3ccc(Br)cc32)c1	> 100 µM	> 99.5 µM
Cc1cc(C(=O)Nc2cccc(CN)c2)c2sc(N)nc2n1	> 100 µM	> 99.5 µM
Cc1cc(C(=O)Nc2cccc(CN)c2)cc(NCc2cnn(C)c2)n1	> 100 µM	> 99.5 µM
O=C(Nc1cc(Cl)cc(C(=O)Nc2ccc(N3CCNCC3)c(F)c2)c1)OCc1ccccc1	> 100 µM	74.1 µM
O=C(Nc1ccc2c(c1)CNC2)c1cc(O)nc(C2CC2)c1	> 100 µM	> 99.5 µM
N[C@H]1CC[C@H](c2ccc(NC(=O)c3cc(Cl)cc(NC(=O)OCc4ccccc4)c3)cc2)C1	84.2 µM	10.2 µM and 8.32 µM and 13 µM
O=C(Nc1cc(Cl)cc(C(=O)Nc2cccc(C(=O)O)c2)c1)OCc1ccccc1	29.1 µM and 25.3 µM	42.7 µM
O=C(Nc1cc(Cl)cc(C(=O)Nc2ccc3c(c2)COC3)c1)OCc1ccccc1	> 100 µM	> 99.5 µM
CCn1c(=O)c(N2CC[C@H](CO)C2)nc2cc(C(=O)NS(C)(=O)=O)ccc21	> 100 µM	> 99.5 µM
CCNC(=O)c1ccc2nc(N3CC[C@H](CO)C3)c(=O)n(CC)c2c1	> 100 µM	90.4 µM
Cc1cc(C(=O)N[C@H](CC(=O)Nc2cccc(CN)c2)c2ccc(OCc3ccccc3)c(Br)c2)sn1	> 100 µM	16.8 µM and 25.3 µM
CS(=O)(=O)Nc1cccc(NC(=O)c2cc(Cl)cc(NC(=O)OCc3ccccc3)c2)c1	> 100 µM	> 99.5 µM
O=C(Nc1cc(Cl)cc(C(=O)Nc2ccc(N3CCCNCC3)cc2)c1)OCc1ccccc1	> 100 µM	27.6 µM
CCn1c(=O)c(N2CC[C@H](CO)C2)nc2cc(C(=O)NCc3ccccc3)ccc21	> 100 µM	> 99.5 µM
CS(=O)(=O)c1ccc(NC(=O)c2cc(Cl)cc(NC(=O)OCc3ccccc3)c2)cc1	> 100 µM	> 99.5 µM
NCc1cc(NC(=O)c2cc(Cl)cc(NC(=O)OCc3ccccc3)c2)cc(C2CC2)c1	> 100 µM	72 µM
CCOc1cccc(-c2ccc(NS(=O)(=O)c3cc(F)c(Cl)cc3C(=O)O)cc2)c1	7.73 µM	9.4 µM

Structure (SMILES)	IC50 [1]	IC50 [2]
CS(=O)(=O)c1cccc(NC(=O)c2cc(Cl)cc(NC(=O)OCc3ccccc3)c2)c1	> 100 µM	> 99.5 µM
C[C@H]1CNC[C@@H]1c1ccc(NC(=O)c2cc(Cl)cc(NC(=O)OCc3ccccc3)c2)cc1	96.6 µM	22.4 µM
CCn1c(=O)c(N2CC[C@@H](CO)C2)nc2ccc(C(=O)O)cc21	> 100 µM	> 99.5 µM
CNC(=O)C[C@H](Nc1ccccn1)c1cc(Cl)cc(CN)c1	> 100 µM	> 99.5 µM
CCNC(=O)c1ccc2c(c1)nc(N1CC[C@H](CO)C1)c(=O)n2CC	> 100 µM	> 99.5 µM
O=C(Nc1cc(Cl)cc(C(=O)Nc2ccc([C@]34CNC[C@H]3C4)cc2)c1)OCc1ccccc1	> 100 µM	> 99.5 µM
C[C@H]1Oc2ccc(NC(=O)c3cc(Cl)cc(NC(=O)OCc4ccccc4)c3)cc2NC1=O	> 100 µM	> 99.5 µM
NCc1cccc(NC(=O)[C@H]2CCOC3(CCC3)C2)c1	> 100 µM	> 99.5 µM
NCc1cccc(NC(=O)c2cc(Cl)cc(Cl)c2OCc2ccccc2)c1	42.6 µM	44.7 µM
O=C(Nc1cc(Cl)cc(C(=O)Nc2ccc(C3CNC3)cc2)c1)OCc1ccccc1	> 100 µM	39.2 µM
COC1(C(=O)N[C@H](CC(=O)Nc2cccc(CN)c2)c2ccc(OCc3ccccc3)c(Br)c2)CC1	> 100 µM	> 99.5 µM
COC(=O)[C@]12CC[C@](C(=O)Nc3cccc(CN)c3)(COC1)C2	> 100 µM	> 99.5 µM
O=C(Nc1cc(Cl)cc(C(=O)Nc2ccc3c(c2)C(=O)OC3)c1)OCc1ccccc1	> 100 µM	> 99.5 µM
N#Cc1cc(NC(=O)OCc2ccccc2)cc(C(=O)Nc2cccc(CN)c2)c1	> 100 µM	> 99.5 µM
Cc1cc(C(=O)Nc2cccc(CN)c2)c2c(n1)CCCC2	> 100 µM	> 99.5 µM
Cc1[nH]c2ccc(Br)cc2c1CC(=O)Nc1cccc(CN)c1	> 100 µM	> 99.5 µM
NCc1cccc(NC(=O)[C@@H]2CCCCN2)c1	> 100 µM	> 99.5 µM
C[C@H]1C[C@@H](C(=O)Nc2cccc(CN)c2)CCO1	> 100 µM	> 99.5 µM
